Measured values published in patent EP1311486B1, “USES OF THALIPORPHINE OR ITS DERIVATIVES IN TREATMENT OF CARDIAC DISEASES AND PREPARATION OF SAME” (Lotus Pharmaceutical Co., Ltd., priority 2000, dated 2002).
“And” between values parts separate entries of the source, which are not always exact repeats. Equal entries are not always repeated. Marks after values point to notes of the source that are not given here.

Legend:
[1] = system: delayed outward potassium current (IK); assay: Inhibition of delayed outward potassium current; conditions: guinea pigs
Method: Moreover, 3-10µM THP prolongs the action potential duration in the atria or ventricles of both rats and guinea pigs (data not shown).

[2] = Superoxide anion scavenging, xanthine/xanthine oxidase system; type: biochemical
[3] = DPPH radical scavenging, absorbance at 517 nm; type: biochemical; conditions: DPPH 100µM, 25°C, 30 minutes
Method: After incubation of various concentrations of THP with 1,1-diphenyl-2-picrylhydrazyl (DPPH, 100µM) at room temperature (25°C) for 30 minutes, decrease in the absorbance for DPPH at 517 nm was measured to determine the dose-response curve of THP in scavenging DPPH radicals.
In the 1,1-diphenyl-2-picrylhydrazyl (DPPH) assay system, the free radical scavenging activity of THP is expressed as IC0.200. The decrease in optical absorbance at 517 nm after addition of THP is monitored following the trapping of the unpaired electron of DPPH. Referring to FIG.4, THP scavenges DPPH in a concentration-dependent manner with IC0.200 of 12.4µmol/L.

isolated rat hearts = assay: Arrhythmia induced by ligation-reperfusion in isolated rat heart
Method: The isolated rat hearts were ligated by a temporary tightening of the silk ligature around the left main coronary artery to induce myocardial ischemia. Reperfusion was achieved by releasing the tension applying to the ligature to induce arrhythmia. 10µM THP was then administered and the atrial and ventricular electrograms were recorded.
(§1) Similarly, 10µM THP can be effective in inhibiting the cardiac arrhythmia induced in the isolated guinea pig heart subjected to global ischemia followed by reperfusion (Table 1). The structure of coronary arteries between rat and guinea pig are not alike, THP, however, can be effective in inhibiting the arrhythmia induced in the isolated heart subjected to ischemia-reperfusion in both animals.

[4] = system: isolated guinea pig hearts; assay: Reperfusion-induced ventricular fibrillation in isolated guinea pig hearts subjected to global ischemia
Method: The isolated guinea pig hearts were ligated by global ischemia. Reperfusion was achieved by releasing the tension applyied to the ligature. Various concentrations of THP were then administered and the ventricular fibrillarion (VF) was recorded. Table 1 Effects of THP on reperfusion-induced ventricular fibrillation in isolated guinea pig hearts subjected to global ischemia
as §1

in vivo anesthetized rat = assay: Reperfusion-induced arrhythmias in the anesthetized rat (5 minutes ischemia, 30 minutes reperfusion)
Method: (§2) Myocardial ischemia was performed by a temporary tightening of the silk ligature around the left main coronary artery. Reperfusion was achieved by releasing the tension applied to the ligature (operated groups). Sham operated animals underwent all surgical procedures, apart from the fact that the silk, passing around the left coronary artery, was not tied (sham groups). Animals were infused with a bolus of THP (3.5x10^-7, 3.5x10^-6, 3.5x10^-5 g/kg), L-NAME (N^∞-nitro-L-arginine methyl ester; 1x10^-3 g/kg) or vehicle (dimethyl sulfoxide/ NaCl 0.9%, 1:10^3; v/v) from a jugular vein 15 minutes before coronary occlusion. The coronary artery was occluded for 30 minutes or 5 minutes followed by 30 minutes reperfusion and with the animals then divided randomly in the following groups: (1) sham + vehicle; (2) sham + THP (3.5x10^-5g/kg); (3) operated + vehicle; (4) operated + THP (3.5x10^-7 g/kg); (5) operated + THP (3.5x10^-6 g/kg); (6) operated + THP (3.5x10^-5 g/kg); (7) operated + L-NAME (1x10^-3 g/kg) + THP (3.5x10^-5 g/kg). Before and during the ischemia or reperfusion period, heart rate (HR), blood pressure (BP) and ECG changes were recorded. Ventricular ectopic activity was evaluated according to the diagnostic criteria advocated in the Lambeth Convention. The incidence and duration of ventricular tachyarrhythmias, including ventricular tachycardia (VT) and ventricular fibrillation (VF), in surviving animals was determined. The Mann-Whitney rank-sum test was used to analyze the differences in the duration of VT and VF between vehicle and drug treated groups. The BP and HR changes between vehicle and drug treated rats in the arrhythmia study were analyzed by ANOVA (analysis of variance) followed by Bonferroni's test. The difference in the percentage incidence of VT, VF and mortality rate was analyzed with a Chi-square test. Table 2 Effect of THP on ischemia-induced arrhythmias in the in vivo anesthetized rat
The severity of reperfusion induced-arrhythmias is critically dependent upon the duration of the preceding period of ischemia. Thus, the protocol of a 5 minutes period of ischemia followed by a 30 minutes period of reperfusion is selected for producing the highest incidence of rhythm disturbance. […] In contrast, animals pretreated with THP (3.5x10^-6 and 3.5x10^-5 g/kg), experienced a drastic reduction in the incidence of VF from 88% to 29% and 13% (p<0.05) and the duration of VF from 92.4±20.5 seconds to 9.2±8.3 and 1.2±1.2 seconds (p<0.05). The mortality rate also decreases from 75% to 0% by 3.5x10^-6 g/kg THP (p<0.05). However, L-NAME coadministration only partially antagonizes the antiarrhythmic activity and mortality prevention effect of thaliporphine (3.5x10^-5 g/kg).

[5] = system: rats subjected to myocardial ischemia; assay: Blood pressure and heart rate in rats subjected to 30 minutes coronary ligation; type: in vivo; conditions: intravenous, 3.5x10^-6 or 3.5x10^-5 g/kg
Method: as §2
No significant difference can be seen among vehicle and drug groups (3.5x10^-6 or 3.5x10^-5 g/kg, THP).

For `COc1cc2c(cc1OC)-c1c(O)c(OC)cc3c1C(C2)N(C)CC3` (single isomer, unassigned; (+)) [THP, (+)-Thaliporphine], the “delayed outward potassium current (IK)” value [1] was “markedly inhibit”, the EC50 [2] was 12.6 µM and the “IC0.200, scavenging of DPPH” value [3] was 12.4 µmol/L. For the same compound, the “effect on polymorphic ventricular tachyrhythmia induced by ischemia-reperfusion” value (isolated rat hearts; 10 µM, FIG. 5 (a)) was “conversion of polymorphic ventricular tachyrhythmia induced by ischemia-reperfusion to normal sinus rhythm”, the IC50 (isolated rat hearts; 0.5 h, isolated rat heart, 30 minutes ligation followed by reperfusion, 3-30µM, read-out: IC50, reversing the cardiac arrhythmia) was 15.7 µM and the “%VF” value ([4]; 3 µM) was 25* %. For the same compound, the “VF (number of hearts)” value ([4]; 3 µM, N 8) was 2, the “%VF” value ([4]; 10 µM) was 0* % and the “VF (number of hearts)” value ([4]; 10 µM, N 6) was 0. The “Mortality (%)” value (in vivo anesthetized rat; THP 3.5x10^-5 g/kg i.v.) was 0* %, the “VF Duration” value (in vivo anesthetized rat; THP 3.5x10^-5 g/kg i.v.) was 1.2 ± 1.2 s and the “VF Incidence(%)” value (in vivo anesthetized rat; THP 3.5x10^-5 g/kg i.v.) was 13% and 14* %. For the same compound, the “VT Duration” value (in vivo anesthetized rat; THP 3.5x10^-5 g/kg i.v.) was 7.6 ± 3.2 s, the “VT Incidence(%)” value (in vivo anesthetized rat; THP 3.5x10^-5 g/kg i.v.) was 71% and the “Mortality (%)” value (in vivo anesthetized rat; THP 3.5x10^-6 g/kg i.v.) was 0%. For the same compound, the “VF Duration” value (in vivo anesthetized rat; THP 3.5x10^-6 g/kg i.v.) was 9.2 ± 8.3 s, the “VF Incidence(%)” value (in vivo anesthetized rat; THP 3.5x10^-6 g/kg i.v.) was 29% and the “VT Duration” value (in vivo anesthetized rat; THP 3.5x10^-6 g/kg i.v.) was 14.6 ± 9.1 s. The “VT Incidence(%)” value (in vivo anesthetized rat; THP 3.5x10^-6 g/kg i.v.) was 57%, the “Mortality (%)” value (in vivo anesthetized rat; THP 3.5x10^-7 g/kg i.v.) was 43% and the “VF Duration” value (in vivo anesthetized rat; THP 3.5x10^-7 g/kg i.v.) was 75.5 ± 15.6 s. The “VF Incidence(%)” value (in vivo anesthetized rat; THP 3.5x10^-7 g/kg i.v.) was 86%, the “VT Duration” value (in vivo anesthetized rat; THP 3.5x10^-7 g/kg i.v.) was 28.6 ± 10.4 s and the “VT Incidence(%)” value (in vivo anesthetized rat; THP 3.5x10^-7 g/kg i.v.) was 86%. The diastolic blood pressure [5] was “does not modify”, the “heart rate (HR)” value [5] was “does not modify” and the systolic blood pressure [5] was “does not modify”.
